Measurements: patent US20080026996A1, “Selective Vpac2 Receptor Reptide Agonists” (ELI LILLY AND COMPANY, priority 2004, published 2008)
Read-outs that look alike come from different tables or passages of the source. Where a SMILES comes first, the peptide text is derived from it. Where no end group is shown, it is not given here. [ ]: non-standard residue; d: D form. The star is where a group is joined. Hexanoyl = CCCCCC(=O)*; Aib = CC(C)(N)C(=O)O

Tests used:
human VPAC1 = molecular target: T1, human VPAC1 (Homo sapiens, UniProt P32241); experiment: Filter binding assay, membranes of cells transiently transfected with human VPAC1, 125I-labeled VIP tracer (Table 2); parameters: expressed in transfected cells
T1 sequence (P32241 31-457): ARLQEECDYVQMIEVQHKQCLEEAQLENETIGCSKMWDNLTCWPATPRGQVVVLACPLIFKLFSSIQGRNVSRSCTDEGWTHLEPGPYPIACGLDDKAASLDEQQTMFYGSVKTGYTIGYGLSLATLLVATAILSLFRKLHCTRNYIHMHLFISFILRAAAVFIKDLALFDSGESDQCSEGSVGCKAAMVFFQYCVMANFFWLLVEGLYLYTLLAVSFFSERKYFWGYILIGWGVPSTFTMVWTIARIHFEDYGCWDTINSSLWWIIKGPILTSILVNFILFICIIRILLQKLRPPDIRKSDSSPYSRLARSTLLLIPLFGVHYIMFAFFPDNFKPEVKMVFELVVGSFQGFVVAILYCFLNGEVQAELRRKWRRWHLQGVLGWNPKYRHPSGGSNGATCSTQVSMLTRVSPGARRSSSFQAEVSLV
Protocol: (§1) For this assay, the solutions and equipment include:
(§2) Presoak solution: 0.5% Polyethyleneamine in Aqua dest.
(§3) Buffer for flushing filter plates: 25 mM HEPES pH 7.4
(§4) Blocking buffer: 25 mM HEPES pH 7.4; 0.2% protease free BSA
(§5) Assay buffer: 25 mM HEPES pH 7.4; 0.5% protease free BSA
(§6) Dilution and assay plate: PS-Microplate, U form
(§7) Filtration Plate Multiscreen FB Opaque Plate; […] Type B Glasfiber filter
(§8) In order to prepare the filter plates, aspirate the presoak solution by vacuum filtration. Flush the plates twice with 200 μL flush buffer. Add 200 μL blocking buffer to the filter plate. The filter plate is then incubated […] for 1 hour at room temperature.
(§9) Fill the assay plate with 25 μL assay buffer, 25 μL membranes (2.5 μg) suspended in assay buffer, 25 μL compound (agonist) in assay buffer, and 25 μL tracer (about 40000 cpm) in assay buffer. Incubate the filled plate for 1 hour with shaking.
(§10) Conduct the transfer from assay plate to filter plate. Aspirate the blocking buffer by vacuum filtration and wash two times with flush buffer. Transfer 90 μL from the assay plate to the filter plate. Aspirate the 90 μL transferred from assay plate and wash three times with 200 μL flush buffer. Remove the plastic support. Dry for 1 hour at 60° C. Add 30 μL Microscint. Perform the count.

human VPAC2 [1] = molecular target: T2, human VPAC2 (Homo sapiens, UniProt P41587); experiment: Filter binding assay, membranes of stable VPAC2 cell line, 125I-labeled VIP tracer (Table 2)
T2 construct: expressed in transfected cells
T2 sequence (P41587 24-438): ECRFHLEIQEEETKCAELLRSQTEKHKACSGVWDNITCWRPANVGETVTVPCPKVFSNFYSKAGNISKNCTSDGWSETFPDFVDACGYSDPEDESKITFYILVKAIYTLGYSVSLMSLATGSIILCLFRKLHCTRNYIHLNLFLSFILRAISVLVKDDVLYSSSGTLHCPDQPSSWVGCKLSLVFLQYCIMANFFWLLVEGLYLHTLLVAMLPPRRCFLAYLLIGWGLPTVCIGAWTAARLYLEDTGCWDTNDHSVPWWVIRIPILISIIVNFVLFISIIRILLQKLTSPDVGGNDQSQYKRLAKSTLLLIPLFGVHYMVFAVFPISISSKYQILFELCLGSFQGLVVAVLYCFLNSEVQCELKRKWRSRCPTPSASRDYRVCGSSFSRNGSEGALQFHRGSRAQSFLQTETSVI
Protocol: as §1, §2, §3, §4, §5, §6, §7, §8, §9, §10

human PAC1 = molecular target: T3, human PAC1 (Homo sapiens, UniProt P41586); experiment: Filter binding assay, membranes of cells transiently transfected with human PAC1, 125I-labeled PACAP-27 tracer (Table 2); parameters: expressed in transfected cells
T3 sequence (P41586 21-468): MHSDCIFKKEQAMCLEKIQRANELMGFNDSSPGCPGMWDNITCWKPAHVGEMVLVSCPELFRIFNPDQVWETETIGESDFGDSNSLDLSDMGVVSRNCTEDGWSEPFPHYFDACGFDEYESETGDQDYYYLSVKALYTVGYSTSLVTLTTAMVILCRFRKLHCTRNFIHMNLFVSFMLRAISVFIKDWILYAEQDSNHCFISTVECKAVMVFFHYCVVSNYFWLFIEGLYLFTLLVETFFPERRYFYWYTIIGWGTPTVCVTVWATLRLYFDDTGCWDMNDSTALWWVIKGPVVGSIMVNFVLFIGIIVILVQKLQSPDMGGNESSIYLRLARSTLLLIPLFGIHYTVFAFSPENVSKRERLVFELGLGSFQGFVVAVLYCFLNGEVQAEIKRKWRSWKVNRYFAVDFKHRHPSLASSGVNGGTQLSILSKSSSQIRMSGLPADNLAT
Protocol: as §1, §2, §3, §4, §5, §6, §7, §8, §9, §10

human VPAC2 [2] = molecular target: T2, human VPAC2; experiment: Alpha screen cAMP in vitro potency, human VPAC2 receptor; assay type: cell-based
Protocol: Alpha screen: Cells are washed in the culture flask once with PBS. Then, the cells are rinsed with enzyme free dissociation buffer. The dissociated cells are removed. The cells are then spun down and washed in stimulation buffer. For each data point, 50,000 cells suspended in stimulation buffer are used. To this buffer, Alpha screen acceptor beads are added along with the stimuli. This mixture is incubated for 60 minutes. Lysis buffer and Alpha screen donor beads are added and are incubated for 60 to 120 minutes. The Alpha screen signal (indicative of intracellular cAMP levels) is read in a suitable instrument (e.g. AlphaQuest from Perkin-Elmer). Steps including Alpha screen donor and acceptor beads are performed in reduced light.

[3] = read-out: Human VPAC1 Receptor Binding
[4] = read-out: Human VPAC2 Receptor Binding
[5] = read-out: Human PAC1 Receptor Binding
[6] = cAMP generation, single result from two analyses performed in a single run, read-out: Human VPAC2 Receptor: Alpha Screen EC50

| Compound | IC50 (human VPAC1) | IC50 (human VPAC2 [1]) | IC50 (human PAC1) | EC50 (human VPAC2 [2]) | IC50 (human VPAC1; [3]) | IC50 (human VPAC2 [1]; [4]) | IC50 (human PAC1; [5]) | EC50 (human VPAC2 [2]; [6]) |
| --- | --- | --- | --- | --- | --- | --- | --- | --- |
| MHSDAVFTDNYTRLLAKLALQKYLQSIKNKRYGGPSSGAPPPS [Agonist P140] | 1140 nM | 1.94 nM | 485 nM | 0.07 nM | – | – | – | – |
| Hexanoyl-HSDAVFTDNYTRLRKQVAAKKYLQSVKNKRYGGPSSGAPPPS [Agonist P109] | – | – | – | – | 274 nM | 0.11 nM | 257 nM | 0.22 nM |
| Hexanoyl-HSDAVFTDNYTRLRKQVAAKKYLQWIKNKRYGGPSSGAPPPS [Agonist P117] | – | – | – | – | 442 nM | 0.51 nM | 243 nM | 0.2 nM |
| Hexanoyl-HSDAVFTDNYTRLRKQVAAKKYLQSLKNKRYGGPSSGAPPPS [Agonist P107] | – | – | – | – | 122 nM | 0.16 nM | 225 nM | 0.12 nM |
| Hexanoyl-H[dA]DAVFTDNYTRLRKQVAAKKYLQSIKNKRYGGPSSGAPPPS [Agonist P101] | – | – | – | – | 93.6 nM | 0.18 nM | 274 nM | 0.21 nM |
| Hexanoyl-HSDAVFTDNYTRLRKQVAAKKFLQSIKNKRYGGPSSGAPPPS [Agonist P130] | – | – | – | – | 233 nM | 0.43 nM | 444 nM | 0.77 nM |
| Hexanoyl-HSDAVFTDNYTRLRKQVAAKKYLQSYKNKRYGGPSSGAPPPS [Agonist P111] | – | – | – | – | 300 nM | 0.19 nM | 258 nM | 0.34 nM |
| Hexanoyl-HSDAVFTDNYTRLRKQVAGKKYLQSIKNKRYGGPSSGAPPPS [Agonist P275] | – | – | – | – | 558 nM | 0.38 nM | 630 nM | 0.32 nM |
| Hexanoyl-HSDAVFTDNYTRLRKQVAAKKYLQS[Aib]KNKRYGGPSSGAPPPS [Agonist P188] | – | – | – | – | 6.19 nM | 0.29 nM | 700 nM | 0.32 nM |
| Hexanoyl-HSDAVFTDNYTRLRKQVAAKKYLQNIKNKRYGGPSSGAPPPS [Agonist P125] | – | – | – | – | 179 nM | 0.19 nM | 300 nM | 0.14 nM |
| Hexanoyl-HSDAVFTDNYTRLRKQVAAKKYLQQIKNKRYGGPSSGAPPPS [Agonist P124] | – | – | – | – | 211 nM | 0.2 nM | 264 nM | 0.09 nM |
| CC[C@H](C)[C@H](NC(=O)[C@H](CO)NC(=O)[C@H](CCC(N)=O)NC(=O)[C@H](CC(C)C)NC(=O)[C@H](Cc1ccc(O)cc1)NC(=O)[C@H](CCCCN)NC(=O)[C@H](CCCCN)NC(=O)[C@H](C)NC(=O)[C@H](C)NC(=O)[C@@H](NC(=O)[C@H](CCC(N)=O)NC(=O)[C@H](CCCCN)NC(=O)[C@H](CCCNC(=N)N)NC(=O)[C@H](CC(C)C)NC(=O)[C@H](CCCNC(=N)N)NC(=O)[C@@H](NC(=O)[C@H](Cc1ccc(O)cc1)NC(=O)[C@H](CCC(N)=O)NC(=O)[C@H](CC(=O)O)NC(=O)[C@@H](NC(=O)[C@H](Cc1ccccc1)NC(=O)[C@@H](NC(=O)[C@H](C)NC(=O)[C@H](CC(=O)O)NC(=O)[C@H](CO)NC(=O)[C@H](Cc1c[nH]cn1)NC(=O)[C@@H](N)CCSC)C(C)C)[C@@H](C)O)[C@@H](C)O)C(C)C)C(=O)N[C@@H](CCCCN)C(=O)N[C@@H](CCC(N)=O)C(=O)N[C@@H](CCCCN)C(=O)N[C@@H](CCCNC(=N)N)C(=O)N[C@@H](Cc1ccc(O)cc1)C(=O)NCC(=O)NCC(=O)N1CCC[C@H]1C(=O)N[C@@H](CO)C(=O)N[C@@H](CO)C(=O)NCC(=O)N[C@@H](C)C(=O)N1CCC[C@H]1C(=O)N1CCC[C@H]1C(=O)N1CCC[C@H]1C(=O)N[C@@H](CO)C(=O)O [Agonist P100] | – | – | – | – | 321 nM | 0.4 nM | 187 nM | 0.28 nM |
| Hexanoyl-HSDAVFTDNYTRLRKQVAAKKWLQSIKNKRYGGPSSGAPPPS [Agonist P129] | – | – | – | – | 462 nM | 0.38 nM | 678 nM | 0.49 nM |
| Hexanoyl-HSDAVFTDNYTRLLAKLALQKYLQSIKNKRYGGPSSGAPPPC [Agonist P164] | – | – | – | – | > 3000 nM | 2.46 nM | 9370 nM | 0.11 nM |
| Hexanoyl-HSDAVFTDNYTRLRKQVAAKKYLQFIKNKRYGGPSSGAPPPS [Agonist P112] | – | – | – | – | 193 nM | 0.49 nM | 164 nM | 0.16 nM |
| CCCCCC(=O)N[C@@H](Cc1c[nH]cn1)C(=O)N[C@@H](CO)C(=O)N[C@@H](CC(=O)O)C(=O)N[C@@H](C)C(=O)N[C@H](C(=O)N[C@@H](Cc1ccccc1)C(=O)N[C@H](C(=O)N[C@@H](CC(=O)O)C(=O)N[C@@H](CC(N)=O)C(=O)N[C@@H](Cc1ccc(O)cc1)C(=O)N[C@H](C(=O)N[C@@H](CCCNC(=N)N)C(=O)N[C@@H](CC(C)C)C(=O)N[C@@H](CCCNC(=N)N)C(=O)N[C@@H](CCCCN)C(=O)N[C@@H](CCC(N)=O)C(=O)N[C@H](C(=O)N[C@@H](C)C(=O)N[C@@H](C)C(=O)N[C@@H](CCCCN)C(=O)N[C@@H](CCCCN)C(=O)N[C@@H](Cc1ccc(O)cc1)C(=O)N[C@@H](CC(C)C)C(=O)N[C@@H](CCC(N)=O)C(=O)N[C@@H](CO)C(=O)N[C@H](C(=O)N[C@@H](CCCCN)C(=O)N[C@@H](CCC(N)=O)C(=O)N[C@@H](CCCCN)C(=O)NCC(=O)NCC(=O)N1CCC[C@H]1C(=O)N[C@@H](CO)C(=O)N[C@@H](CO)C(=O)NCC(=O)N[C@@H](C)C(=O)N1CCC[C@H]1C(=O)N1CCC[C@H]1C(=O)N1CCC[C@H]1C(=O)N[C@@H](CO)C(=O)O)[C@@H](C)CC)C(C)C)[C@@H](C)O)[C@@H](C)O)C(C)C [Agonist P270] (Hexanoyl-HSDAVFTDNYTRLRKQVAAKKYLQSIKQKGGPSSGAPPPS-OH; C-terminus assumed) | – | – | – | – | 110 nM | 0.15 nM | 436 nM | 0.13 nM |
| Hexanoyl-HSDAVFTDNYTRLRKQVAAKKYLQSIKNKKGGPSSGAPPPS [Agonist P121] | – | – | – | – | 169 nM | 0.19 nM | 253 nM | 0.1 nM |
| Hexanoyl-HSDAVFTDNYTRLRKQVAAKKYLQSIKNKRGGPSSGAPPPS [Agonist P123] | – | – | – | – | 166 nM | 0.26 nM | 265 nM | 0.12 nM |
